Experimental findings from patent US20160220557A1, “USE OF ACETYL-COA CARBOXYLASE INHIBITORS FOR TREATING ACNE VULGARIS” (PFIZER INC., priority 2013, published 2016) are described below.

Assay [1] deals with SZ95 human sebocyte cells. Briefly: Inhibition of de novo lipogenesis (14C-acetate incorporation) in cultured human sebocytes. The class given is cell-based. The note with it: SZ95 sebocytes, 14C-acetate incorporation into lipids relative to vehicle, read-out: C9302E Sebocyte IC50. On the procedure: SZ95 sebocytes were grown in Human Sebocyte Growth Medium (HSGM) (Sebomed® medium (Biochrom: F8205) supplemented with 10% heat-inactivated fetal bovine serum, 1% penicillin/streptomycin, 1 mM calcium chloride and 5 ng/mL recombinant human epidermal growth factor (Life Tech: PHG0311)). At 90% confluence, cells were washed three times with PBS and then detached with 0.05% Trypsin-EDTA. Cells were centrifuged and resuspended in HSGM containing 10% charcoal-stripped serum (Life Tech: 12676-029). Cells were then plated in 24-well plates at a density of 0.25×10^6 cells/well and were incubated overnight to enable cell adherence to the culture plate.
Cells were treated with a dose response of compound, and each dose was assayed in triplicate. Briefly, compounds were dissolved in DMSO stocks and diluted 1:1000 into charcoal-stripped media. 0.1% DMSO without compound was used as the vehicle control. After a 1 hour preincubation with compound or vehicle, 0.25 μCi ^14C-acetic acid (American Radiolabeled Chemicals: ARC0158B) was added to each well. Plates were then incubated for an additional two hours. At the end of the incubation period, cells were removed from incubator, placed on ice, and then washed twice with ice-cold PBS to remove free ^14C-acetic acid. Plates were sealed and stored at −20° C. until analysis.
Plates were shaken for 1 hour at room temperature to induce lysis. Lysates were transferred to individual 1.5 mL polypropylene tubes, and wells were washed with 175 μl of PBS, which was added to lysates. 450 μl of a 1:1 (v/v) chloroform:methanol solution was then added to each tube, and then all tubes were vortexed for 10 seconds and centrifuged at 20,000×g for 5 minutes at room temperature to separate aqueous from organic phase. A 25 μl aliquot was removed from the bottom organic layer of each sample and added to 6 mL OptiPhase supermix (PerkinElmer: 1200-439) scintillation fluid. Counts of ^14C incorporated into lipids were assessed by scintillation counting. DNL (counts of ^14C incorporated into lipids) was expressed for compound treated cells relative to DNL in the vehicle control treated cells for determination of EC50 values. For a subset of the compounds tested, a second aliquot (3×35 μl) of the organic layer of each sample was removed and applied to a TLC lane (Analtech Silica Gel G Plates). Radiolabeled lipids were resolved using a 2-solvent system. Solvent 1 contained a 100:100:100:40:36 mixture of ethyl acetate:isopropyl alcohol:CHCl3:MeOH:0.25% KCl and solvent 2 a 70:27:3 hexane:diethyl ether:acetic acid mix. The TLC plate was dried under nitrogen for 30 minutes and [^14C]-calibrators added to a vacant lane. Bands were visualized and quantitated using a Molecular Dynamics' Storm 860 Phosphorimager system following 18-36 hours exposure to a Phosphorimager screen.

For assay [2], the target named is hACC1 (Homo sapiens, UniProt Q13085). Briefly: Radiometric ACC1 inhibition assay. The assay is classed as biochemical.
For assay [3], the target named is hACC2 (Homo sapiens, UniProt O00763). Put plainly: Radiometric ACC2 inhibition assay. The class given is biochemical.
Sequence of hACC2 (O00763 whole entry): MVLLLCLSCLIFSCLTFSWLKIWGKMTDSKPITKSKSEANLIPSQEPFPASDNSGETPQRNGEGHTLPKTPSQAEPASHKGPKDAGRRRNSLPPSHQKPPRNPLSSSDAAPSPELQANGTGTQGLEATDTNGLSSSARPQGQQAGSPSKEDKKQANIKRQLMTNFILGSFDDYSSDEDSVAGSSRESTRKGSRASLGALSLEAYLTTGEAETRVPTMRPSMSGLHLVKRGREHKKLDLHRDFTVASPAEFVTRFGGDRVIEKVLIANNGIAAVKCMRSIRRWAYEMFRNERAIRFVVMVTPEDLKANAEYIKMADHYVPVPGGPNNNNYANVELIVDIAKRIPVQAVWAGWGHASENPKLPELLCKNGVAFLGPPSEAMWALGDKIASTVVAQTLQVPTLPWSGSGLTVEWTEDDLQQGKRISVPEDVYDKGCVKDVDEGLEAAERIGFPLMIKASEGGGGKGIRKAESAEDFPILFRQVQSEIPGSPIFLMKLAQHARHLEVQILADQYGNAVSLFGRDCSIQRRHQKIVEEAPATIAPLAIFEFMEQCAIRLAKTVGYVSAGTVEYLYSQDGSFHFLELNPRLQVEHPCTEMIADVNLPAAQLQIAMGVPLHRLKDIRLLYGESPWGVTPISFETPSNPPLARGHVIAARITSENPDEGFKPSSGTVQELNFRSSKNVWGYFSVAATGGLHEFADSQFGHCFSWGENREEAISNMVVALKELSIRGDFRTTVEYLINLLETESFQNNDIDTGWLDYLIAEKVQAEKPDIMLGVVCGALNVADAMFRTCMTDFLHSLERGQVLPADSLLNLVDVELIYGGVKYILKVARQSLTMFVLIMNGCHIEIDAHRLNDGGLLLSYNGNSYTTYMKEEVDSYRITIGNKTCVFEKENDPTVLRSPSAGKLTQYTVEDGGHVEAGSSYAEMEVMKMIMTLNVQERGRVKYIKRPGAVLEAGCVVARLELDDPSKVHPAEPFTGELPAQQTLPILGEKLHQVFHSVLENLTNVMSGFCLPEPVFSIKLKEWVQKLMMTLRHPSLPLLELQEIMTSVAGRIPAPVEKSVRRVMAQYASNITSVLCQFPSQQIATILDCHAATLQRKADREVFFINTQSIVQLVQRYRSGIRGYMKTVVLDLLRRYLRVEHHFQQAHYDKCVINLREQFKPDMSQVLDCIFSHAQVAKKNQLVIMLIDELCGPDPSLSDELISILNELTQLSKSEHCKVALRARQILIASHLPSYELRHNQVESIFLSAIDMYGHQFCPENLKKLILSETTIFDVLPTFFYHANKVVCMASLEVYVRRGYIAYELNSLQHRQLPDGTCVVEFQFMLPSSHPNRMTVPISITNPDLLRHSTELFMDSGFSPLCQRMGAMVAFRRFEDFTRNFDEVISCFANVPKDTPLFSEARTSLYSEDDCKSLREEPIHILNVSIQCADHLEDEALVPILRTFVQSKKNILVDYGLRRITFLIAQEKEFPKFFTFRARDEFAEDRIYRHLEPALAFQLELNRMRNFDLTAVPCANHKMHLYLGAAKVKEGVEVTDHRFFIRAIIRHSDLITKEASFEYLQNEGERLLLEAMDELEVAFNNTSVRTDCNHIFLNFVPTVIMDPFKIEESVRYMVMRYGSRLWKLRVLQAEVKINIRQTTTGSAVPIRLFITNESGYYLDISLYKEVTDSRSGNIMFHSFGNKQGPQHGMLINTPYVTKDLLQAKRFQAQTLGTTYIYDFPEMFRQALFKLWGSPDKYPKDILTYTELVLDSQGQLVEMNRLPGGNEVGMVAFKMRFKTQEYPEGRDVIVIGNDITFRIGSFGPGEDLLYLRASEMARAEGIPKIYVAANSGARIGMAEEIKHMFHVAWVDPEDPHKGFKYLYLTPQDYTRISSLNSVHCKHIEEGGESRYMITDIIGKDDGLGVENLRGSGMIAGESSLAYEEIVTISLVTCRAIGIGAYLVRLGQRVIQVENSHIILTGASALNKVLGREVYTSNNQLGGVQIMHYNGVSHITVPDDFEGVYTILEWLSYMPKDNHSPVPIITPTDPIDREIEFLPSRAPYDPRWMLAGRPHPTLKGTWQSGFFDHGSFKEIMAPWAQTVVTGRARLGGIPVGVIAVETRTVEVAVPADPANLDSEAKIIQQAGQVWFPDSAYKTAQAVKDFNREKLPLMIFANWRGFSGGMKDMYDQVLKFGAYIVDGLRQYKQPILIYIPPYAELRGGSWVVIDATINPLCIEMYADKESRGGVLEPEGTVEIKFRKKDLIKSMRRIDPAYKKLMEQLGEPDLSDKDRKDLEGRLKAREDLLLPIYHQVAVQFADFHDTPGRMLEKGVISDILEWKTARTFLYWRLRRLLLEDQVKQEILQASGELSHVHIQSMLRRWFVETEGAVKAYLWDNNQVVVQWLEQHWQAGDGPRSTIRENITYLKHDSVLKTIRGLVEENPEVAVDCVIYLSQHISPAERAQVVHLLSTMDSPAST
In assay [4] the target is T1, recombinant human ACC1 (rhACC1) (Homo sapiens, UniProt Q13085, DEL44-44).
T1 construct: His6 (N); made in house; host or cells: SF9 insect cells (baculovirus)
Briefly: Transcreener ADP detection FP assay, recombinant human ACC1 inhibition. The note with it: recombinant human ACC1, 50 μM ATP; read-out: Transcreener Assay hACC1 IC50. The assay is classed as biochemical.

Assay [5] concerns the target T2, recombinant human ACC2 (rhACC2) (Homo sapiens, UniProt O00763, V2141I).
T2 construct: made in house; host or cells: CHO cells, tetracycline-induced (pcDNA5 FRT TO-TOPO)
Briefly: Transcreener ADP detection FP assay, recombinant human ACC2 inhibition. The class given is biochemical. The note with it: recombinant human ACC2, 50 μM ATP; read-out: Transcreener Assay hACC2 IC50.

Like-named read-outs stand apart in the source and are kept apart here.

T2 sequence (O00763 whole entry V2141I): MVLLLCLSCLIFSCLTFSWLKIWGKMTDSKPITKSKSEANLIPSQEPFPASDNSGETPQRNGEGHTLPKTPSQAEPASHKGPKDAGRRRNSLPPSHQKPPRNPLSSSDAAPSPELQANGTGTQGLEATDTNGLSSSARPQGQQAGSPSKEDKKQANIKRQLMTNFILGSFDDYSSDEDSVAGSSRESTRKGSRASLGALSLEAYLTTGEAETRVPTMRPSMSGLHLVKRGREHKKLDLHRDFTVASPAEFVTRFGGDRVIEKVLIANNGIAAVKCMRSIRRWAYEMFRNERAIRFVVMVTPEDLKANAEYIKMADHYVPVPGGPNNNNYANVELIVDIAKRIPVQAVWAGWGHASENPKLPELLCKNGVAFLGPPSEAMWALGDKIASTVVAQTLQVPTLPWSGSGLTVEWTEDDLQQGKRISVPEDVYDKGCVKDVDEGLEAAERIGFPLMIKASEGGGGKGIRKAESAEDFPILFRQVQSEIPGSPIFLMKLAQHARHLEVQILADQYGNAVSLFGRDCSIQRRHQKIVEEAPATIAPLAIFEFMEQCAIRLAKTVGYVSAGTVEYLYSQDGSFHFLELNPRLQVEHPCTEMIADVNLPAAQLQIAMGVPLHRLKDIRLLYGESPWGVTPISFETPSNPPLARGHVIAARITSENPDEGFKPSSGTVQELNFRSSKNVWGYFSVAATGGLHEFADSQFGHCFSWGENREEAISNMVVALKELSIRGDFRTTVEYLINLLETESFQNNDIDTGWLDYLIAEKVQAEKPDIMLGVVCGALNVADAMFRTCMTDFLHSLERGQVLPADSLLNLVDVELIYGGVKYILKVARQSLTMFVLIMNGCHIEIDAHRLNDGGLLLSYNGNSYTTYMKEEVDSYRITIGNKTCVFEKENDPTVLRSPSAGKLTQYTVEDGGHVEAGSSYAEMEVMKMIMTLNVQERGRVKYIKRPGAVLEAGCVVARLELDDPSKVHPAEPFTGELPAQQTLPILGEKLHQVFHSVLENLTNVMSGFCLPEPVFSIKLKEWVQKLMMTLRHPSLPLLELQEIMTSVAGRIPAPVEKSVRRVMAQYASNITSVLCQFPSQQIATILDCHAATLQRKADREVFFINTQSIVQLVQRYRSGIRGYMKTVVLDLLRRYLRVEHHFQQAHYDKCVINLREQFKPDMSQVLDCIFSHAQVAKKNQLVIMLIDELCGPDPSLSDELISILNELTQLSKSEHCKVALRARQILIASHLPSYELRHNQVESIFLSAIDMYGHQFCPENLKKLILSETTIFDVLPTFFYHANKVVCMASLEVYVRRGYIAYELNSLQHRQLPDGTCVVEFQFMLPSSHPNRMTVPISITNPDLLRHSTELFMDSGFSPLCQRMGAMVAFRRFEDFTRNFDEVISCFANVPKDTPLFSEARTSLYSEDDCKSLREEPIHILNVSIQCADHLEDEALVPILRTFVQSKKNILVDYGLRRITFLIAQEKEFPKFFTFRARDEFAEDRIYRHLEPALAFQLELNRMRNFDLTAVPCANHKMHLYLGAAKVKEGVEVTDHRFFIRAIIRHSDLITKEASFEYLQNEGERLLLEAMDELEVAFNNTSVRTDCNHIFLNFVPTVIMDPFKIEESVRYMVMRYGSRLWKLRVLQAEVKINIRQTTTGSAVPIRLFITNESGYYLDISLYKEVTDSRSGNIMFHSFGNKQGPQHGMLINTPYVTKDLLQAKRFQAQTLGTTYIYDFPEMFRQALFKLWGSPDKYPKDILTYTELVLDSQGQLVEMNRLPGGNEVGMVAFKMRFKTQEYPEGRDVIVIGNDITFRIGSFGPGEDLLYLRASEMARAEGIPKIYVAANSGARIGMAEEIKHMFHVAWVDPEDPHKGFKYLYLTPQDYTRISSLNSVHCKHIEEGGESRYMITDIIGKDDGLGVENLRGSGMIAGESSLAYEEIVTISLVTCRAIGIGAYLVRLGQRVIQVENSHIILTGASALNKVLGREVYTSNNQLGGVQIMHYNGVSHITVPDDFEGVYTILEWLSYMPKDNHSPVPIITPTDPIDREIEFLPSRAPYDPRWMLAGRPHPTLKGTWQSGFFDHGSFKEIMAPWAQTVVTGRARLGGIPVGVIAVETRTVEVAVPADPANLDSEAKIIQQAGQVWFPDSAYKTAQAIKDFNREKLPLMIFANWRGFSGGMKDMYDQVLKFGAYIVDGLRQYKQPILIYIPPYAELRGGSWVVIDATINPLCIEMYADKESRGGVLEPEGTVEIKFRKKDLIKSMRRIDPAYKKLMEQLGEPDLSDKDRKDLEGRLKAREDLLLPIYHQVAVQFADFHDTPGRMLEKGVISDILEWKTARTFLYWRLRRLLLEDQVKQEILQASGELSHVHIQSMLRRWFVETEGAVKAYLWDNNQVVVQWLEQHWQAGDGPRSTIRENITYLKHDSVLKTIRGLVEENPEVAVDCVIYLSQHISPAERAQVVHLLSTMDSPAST

What is called IC50 is the concentration at which inhibition is half-maximal. Take `CC(C)n1ncc2c1C(=O)CC1(CCN(C(=O)c3ccc4[nH]nc(C#N)c4c3)CC1)C2` [Example 6, 5-(1-isopropyl-7-oxo-1,4,6,7-tetrahydrospiro[indazole-5,4′-piperidin]-1′-ylcarbonyl)-1H-indazole-3-carbonitrile]: the results for the IC50 in assay [1], in assay [2] and in assay [3] were 103 nM, 5 nM and 4 nM, respectively.

For the compound `O=C(O)CCc1ccc(-c2ccc(S(=O)(=O)N[C@H]3CC[C@H](C(=O)N4CCOC[C@@H]4c4ccccc4)CC3)cc2)cc1` [Example 24, 3-(4′-(N-((1S,4r)-4-((S)-3-phenylmorpholine-4-carbonyl)cyclohexyl)sulfamoyl)-[1,1′-biphenyl]-4-yl)propanoic acid], the values for the IC50 in assay [4] and in assay [5] were 41 nM and 28 nM, respectively.

With `CC(=O)N[C@@H](C)C#Cc1ccc(Oc2ccc(OC(C)C)cc2)cc1` [Example 12, (S)—N-(4-(4-(4-isopropoxyphenoxy)phenyl)but-3-yn-2-yl)acetamide], the IC50 in assay [4] worked out at 141 nM; in assay [5] it was 29 nM; in assay [1] (Homo sapiens) it was 121 nM; in assay [2], 26 nM; in assay [3], 2 nM.

With `CC(=O)N[C@@H](C)c1cc(-c2cnc(Oc3ccc(OCC4CC4)cc3)s2)no1` [Example 21, (S)—N-(1-(3-(2-(4-(cyclopropylmethoxy)phenoxy)thiazol-5-yl)isoxazol-5-yl)ethyl)acetamide], the IC50 in assay [4] was 44 nM; in assay [5] it was 7 nM; in assay [2] it was 98 nM; in assay [3] it was 2 nM.

Regarding `CC(C)n1ncc2c1C(=O)CC1(CCN(C(=O)c3ccc4[nH]ncc4c3)CC1)C2` [Example 5, 1′-(1H-indazole-5-carbonyl)-1-isopropyl-4,6-dihydrospiro[indazole-5,4′-piperidin]-7(1H)-one], the IC50 in assay [4] worked out at 62 nM; in assay [5] it was 30 nM; in assay [1] (Homo sapiens) it was 201 nM; in assay [2], 5 nM; in assay [3], 8 nM.

Consider `CC(C)(O)[C@@H](NC(=O)[C@H]1CC[C@H](NS(=O)(=O)c2ccc(C(F)(F)F)cc2)CC1)c1ccccc1` [Example 16, (1R,4S)—N—((S)-2-hydroxy-2-methyl-1-phenylpropyl)-4-((4-(trifluoromethyl)phenyl)sulfonamido)cyclohexane-1-carboxamide], for which the IC50 in assay [4] was 74 nM; in assay [5], 69 nM; in assay [1] (Homo sapiens), 2770 nM.

On to `CO[C@H]1CCCC[C@@H](c2ccccc2)OC(=O)[C@@H](C)[C@@]2(O)O[C@H]([C@@H](C)[C@H](O)[C@H]2OC)[C@@H](C)/C=C/[C@H]1OC` [Example 9, reference compound], for which the IC50 came out at 20 nM in assay [4]; 1200 nM in assay [5]; 4 nM in assay [1] (Homo sapiens); 140 nM in assay [2]; 16 nM in assay [3].

In assay [2], `CCCCCCCCCCCCCCOc1ccc(C(=O)OCc2oc(=O)oc2C)o1` [Example 19, (5-methyl-2-oxo-1,3-dioxol-4-yl)methyl 5-(tetradecyloxy)furan-2-carboxylate] yielded an IC50 of more than 10000 nM.

On to `CCCCCCCCCCCCCCOc1ccc(C(=O)OCC(F)(F)F)o1` [Example 17, 2,2,2-trifluoroethyl 5-(tetradecyloxy)furan-2-carboxylate], for which, in assay [2], the IC50 is more than 10000 nM.

`CC(=O)NC(C)c1ccc(-c2cnc(Oc3ccc(OCC4CC4)cc3)s2)cc1` (stereo not drawn) [Example 22, N-(1-(4-(2-(4-(cyclopropylmethoxy)phenoxy)thiazol-5-yl)phenyl)ethyl)acetamide]: the values for the IC50 in assay [4] and in assay [5] were 4050 nM and 957 nM, respectively.

Regarding `CCCOc1ccc(Oc2ccc(-c3ccc(C(C)NC(C)=O)cc3)cn2)cc1` (stereo not drawn) [Example 13, N-(1-(4-(6-(4-propoxyphenoxy)pyridin-3-yl)phenyl)ethyl)acetamide, reference compound], the IC50 was more than 2980 nM in assay [4], 180 nM in assay [5] and 3280 nM in assay [1] (Homo sapiens).

For `CCCCCCCCCCCCCCOc1ccc(C(=O)OC(C)C)o1` [Example 18, isopropyl 5-(tetradecyloxy)furan-2-carboxylate], the IC50 in assay [2] is more than 10000 nM.

In the case of `CCOc1cc(C(=O)N2CCC3(CC2)CC(=O)c2cc(-c4cncc(C(N)=O)c4)ccc2O3)cc(OCC)c1-c1cccc(C(=O)O)c1` [Example 14, 4′-(6-(5-carbamoylpyridin-3-yl)-4-oxospiro[chromane-2,4′-piperidine]-1′-carbonyl)-2′,6′-diethoxy-[1,1′-biphenyl]-3-carboxylic acid], the IC50 in assay [4] stood at 12 nM; in assay [5], 8 nM; in assay [1] (Homo sapiens), 8930 nM; in assay [2] it was 23 nM; in assay [3], 5 nM.

Turning to `CC(C)n1ncc2c1C(=O)CC1(CCN(C(=O)c3ccc4ccc(NC(C)(C)C)nc4c3)CC1)C2` [Example 4, 1′-(2-(tert-butylamino)quinoline-7-carbonyl)-1-isopropyl-4,6-dihydrospiro[indazole-5,4′-piperidin]-7(1H)-one], the IC50 in assay [4] turned out to be 17 nM; in assay [5], 12 nM; in assay [1] (Homo sapiens), 15 nM; in assay [2] it was 6 nM; in assay [3] it was 5 nM.

`CCCCC1=NC2(CCN(C(=O)c3c(NC(=O)NCC)sc4ccccc34)CC2)C(=O)N1` [Example 20, 1-(3-(2-butyl-4-oxo-1,3,8-triazaspiro[4.5]dec-1-ene-8-carbonyl)benzo[b]thiophen-2-yl)-3-ethyl urea]: the IC50 was 11000 nM in assay [4] and 2200 nM in assay [5].

In the case of `CC(=O)N[C@@H](C)CCc1ccc(Oc2ccc(OC(C)C)cc2)cc1` [Example 23, (S)—N-(4-(4-(4-isopropoxyphenoxy)phenyl)butan-2-yl)acetamide], the IC50 in assay [4] came out at 680 nM; in assay [5], 109 nM; in assay [2], 687 nM; in assay [3], 16 nM.

With `COc1nccc2ccc(C(=O)N3CCC4(CC3)Cc3cn(C(C)(C)C)nc3C(=O)N4)cc12` [Example 7, 2′-(tert-butyl)-1-(1-methoxyisoquinoline-7-carbonyl)-4′,6′-dihydrospiro[piperidine-4,5′-pyrazolo[3,4-c]pyridin]-7′(2′H)-one], in assay [1] (Homo sapiens), the IC50 came to 94 nM.

For `CC(=O)NCC(C)c1ccc2nc(Oc3ccc(OCC4CC4)nc3)sc2c1` (stereo not drawn) [Example 15, N-(2-(2-((6-(cyclopropylmethoxy)pyridin-3-yl)oxy)benzo[d]thiazol-6-yl)propyl)acetamide], the IC50 in assay [4] was 2200 nM; in assay [5], 1100 nM; in assay [1] (Homo sapiens), 4310 nM.

For `CC(C)n1ncc2c1C(=O)CC1(CCN(C(=O)c3ccc4[nH]nc(C#N)c4c3)CC1)C2` [Example 11, 5-(1-isopropyl-7-oxo-1,4,6,7-tetrahydrospiro[indazole-5,4′-piperidine]-1′-carbonyl)-1H-indazole-3-carbonitrile], the IC50 was 217 nM in assay [1], 4 nM in assay [2] and 7 nM in assay [3].

With `COc1cc(C(=O)N2CCC3(CC2)CC(=O)c2cc(-c4nnn[nH]4)ccc2O3)cc2c1ccn2C1CC1` [Example 10, 1′-(1-cyclopropyl-4-methoxy-1H-indole-6-carbonyl)-6-(1H-tetrazol-5-yl)spiro[chromane-2,4′-piperidin]-4-one], the IC50 in assay [4] came out at 16 nM; in assay [5], 4 nM; in assay [1] (Homo sapiens) it was 1690 nM.

With `COc1ccc2ccc(C(=O)N3CCC4(CC3)CC(=O)c3c(cnn3C(C)C)C4)cc2c1` [Example 2, 1-isopropyl-1′-(7-methoxy-2-naphthoyl)-4,6-dihydrospiro[indazole-5,4′-piperidin]-7(1H)-one], the IC50 in assay [4] was 4 nM; in assay [5] it was 2 nM; in assay [1] (Homo sapiens) it was 28.2 nM; in assay [2] it was 3 nM; in assay [3], 4 nM.
